Laboratory results as given in patent US6127519A, “Calcitonin derivatives” (Tsumura & Co., priority 1990, dated 2000).
Numbered stars: 1 amine (or outer) side, 2 acyl side, 3 side chain; on linkers, the order of the positions; unused ones are H or OH. Bridge positions count the residues as written; N and C are the ends. Square brackets hold non-standard residues; d marks the D form. Peptide text beside a SMILES is read from it. Suc = O=C(CCC(=O)[*:2])[*:1]; Orn = NCCC[C@H](N)C(=O)O

System: calcium concentration in the serum
Experiment: Test 1: reduction of calcium level in serum after tail vein administration to rats
Assay type: in vivo, rats of the Wistar strain
Settings: 1 ml/kg tail vein, female Wistar rats
Protocol: Six-weeks-old female rats of the Wistar strain (each group consisting of 4 rats) were used as the test animal, and the peptides of the present invention obtained in the examples given hereinafter were tested at concentrations adjusted with a 1% aqueous solution of sodium acetate (pH 4,0) to which 0.1% bovine serum albumin (BSA) was added. The solution was adjusted to a concentration of 166 μg/ml 830 ng/ml or 83 ng/ml and administered with the tail vein in an amount of 1 ml/kg. The back of the rat was fixed and blood was collected just before the administration, and at predetermined intervals after the administration, from the neck vein. The amount of blood collected each time was 0.3 ml. The sampled blood was subjected to centrifugal separation at 3500 rpm for 20 minutes to separate serum and the calcium content in the separated serum was measured by TBA-380 (supplied by Toshiba) using a Wako calcium-measuring kit (o-cpc method), and the ratio of reduction of the calcium concentration in the serum was determined.

[1] = concentration 83 ng/ml, 0 hour (just before administration)
[2] = concentration 83 ng/ml, 2 hours
[3] = concentration 83 ng/ml, 4 hours
[4] = concentration 83 ng/ml, 6 hours
[5] = concentration 830 ng/ml, 0 hour (just before administration)
[6] = concentration 830 ng/ml, 1 hour
[7] = concentration 830 ng/ml, 2 hours
[8] = concentration 830 ng/ml, 4 hours
[9] = concentration 830 ng/ml, 6 hours

Compound | Serum calcium level as percent of pre-dose baseline [1] [%] | Serum calcium level as percent of pre-dose baseline (concentration 83 ng/ml, 1 hour) [%] | Serum calcium level as percent of pre-dose baseline [2] [%] | Serum calcium level as percent of pre-dose baseline [3] [%] | Serum calcium level as percent of pre-dose baseline [4] [%] | Serum calcium level as percent of pre-dose baseline [5] [%] | Serum calcium level as percent of pre-dose baseline [6] [%] | Serum calcium level as percent of pre-dose baseline [7] [%] | Serum calcium level as percent of pre-dose baseline [8] [%] | Serum calcium level as percent of pre-dose baseline [9] [%]
CC[C@H](C)[C@H](NC(=O)[C@H](C)NC(=O)[C@@H](NC(=O)[C@H](CCC(N)=O)NC(=O)[C@@H]1CCCN1C(=O)[C@H](Cc1ccc(O)cc1)NC(=O)[C@@H](NC(=O)[C@H](CCC(N)=O)NC(=O)[C@H](CC(C)C)NC(=O)[C@H](CCCCN)NC(=O)[C@H](Cc1c[nH]cn1)NC(=O)[C@H](CC(C)C)NC(=O)[C@H](CCC(=O)O)NC(=O)[C@H](CCC(N)=O)NC(=O)[C@H](CO)NC(=O)[C@H](CC(C)C)NC(=O)[C@H](CCCCN)NC(=O)CNC(=O)[C@H](CC(C)C)NC(=O)[C@H](CC(C)C)NC(=O)[C@@H]1CCCCNC(=O)CCC(=O)N[C@@H](CC(N)=O)C(=O)N[C@@H](CC(C)C)C(=O)N[C@@H](CO)C(=O)N[C@@H]([C@@H](C)O)C(=O)N1)[C@@H](C)O)[C@@H](C)O)C(=O)NCC(=O)N[C@H](C(=O)NCC(=O)N[C@@H](C)C(=O)N1CCC[C@H]1C(N)=O)C(C)C [Peptide No. 26] (NLSTKLLGKLSQELHKLQTYPQTAIGVGAP-NH2; linker N-5 via Suc) | 100.0 | 78.9 | 67.6 | 70.4 | 75.2 | 100.0 | 73.9 | 62.9 | 52.1 | 48.2
CC[C@H](C)[C@H](NC(=O)[C@H](C)NC(=O)[C@@H](NC(=O)[C@H](CCC(N)=O)NC(=O)[C@@H]1CCCN1C(=O)[C@H](Cc1ccc(O)cc1)NC(=O)[C@@H](NC(=O)[C@H](CCC(N)=O)NC(=O)[C@H](CC(C)C)NC(=O)[C@H](CCCCN)NC(=O)[C@H](Cc1c[nH]cn1)NC(=O)[C@H](CC(C)C)NC(=O)[C@H](CCC(=O)O)NC(=O)[C@H](CCC(N)=O)NC(=O)[C@H](CO)NC(=O)[C@H](CC(C)C)NC(=O)[C@H](CCCCN)NC(=O)CNC(=O)[C@H](CC(C)C)NC(=O)[C@H](CC(C)C)NC(=O)[C@@H]1CCCNC(=O)CC[C@H](N)C(=O)N[C@@H](CC(N)=O)C(=O)N[C@@H](CC(C)C)C(=O)N[C@@H](CO)C(=O)N[C@@H]([C@@H](C)O)C(=O)N1)[C@@H](C)O)[C@@H](C)O)C(=O)NCC(=O)N[C@H](C(=O)NCC(=O)N[C@@H](C)C(=O)N1CCC[C@H]1C(N)=O)C(C)C [Peptide No. 29] (H-ENLST[Orn]LLGKLSQELHKLQTYPQTAIGVGAP-NH2; lactam 1-6) | 100.0 | 84.6 | 91.7 | 83.2 | 76.6 | 100.0 | 75.0 | 84.7 | 78.0 | 73.1
CC[C@H](C)[C@H](NC(=O)[C@H](C)NC(=O)[C@@H](NC(=O)[C@H](CCC(N)=O)NC(=O)[C@@H]1CCCN1C(=O)[C@H](Cc1ccc(O)cc1)NC(=O)[C@@H](NC(=O)[C@H](CCC(N)=O)NC(=O)[C@H](CC(C)C)NC(=O)[C@H](CCCCN)NC(=O)[C@H](Cc1c[nH]cn1)NC(=O)[C@H](CC(C)C)NC(=O)[C@H](CCC(=O)O)NC(=O)[C@H](CCC(N)=O)NC(=O)[C@H](CO)NC(=O)[C@H](CC(C)C)NC(=O)[C@H](CCCCN)NC(=O)CNC(=O)[C@H](CC(C)C)NC(=O)[C@H](CC(C)C)NC(=O)[C@@H]1CCCCNC(=O)C[C@H](N)C(=O)N[C@@H](CC(N)=O)C(=O)N[C@@H](CC(C)C)C(=O)N[C@@H](CO)C(=O)N[C@@H]([C@@H](C)O)C(=O)N1)[C@@H](C)O)[C@@H](C)O)C(=O)NCC(=O)N[C@H](C(=O)NCC(=O)N[C@@H](C)C(=O)N1CCC[C@H]1C(N)=O)C(C)C [Peptide No. 24] (H-DNLSTKLLGKLSQELHKLQTYPQTAIGVGAP-NH2; lactam 1-6) | 100.0 | 71.1 | 70.7 | 85.6 | 80.1 | 100.0 | 69.1 | 61.9 | 54.4 | 53.0
CC[C@H](C)[C@H](NC(=O)[C@H](C)NC(=O)[C@@H](NC(=O)[C@H](CCC(N)=O)NC(=O)[C@@H]1CCCN1C(=O)[C@H](Cc1ccc(O)cc1)NC(=O)[C@H](CC(C)C)NC(=O)[C@H](CCCCN)NC(=O)[C@H](Cc1c[nH]cn1)NC(=O)[C@H](CC(C)C)NC(=O)[C@H](CCC(=O)O)NC(=O)[C@H](CCC(N)=O)NC(=O)[C@H](CO)NC(=O)[C@H](CC(C)C)NC(=O)[C@H](CCCCN)NC(=O)CNC(=O)[C@H](CC(C)C)NC(=O)[C@H](CCSC)NC(=O)[C@@H]1CSSC[C@H](N)C(=O)NCC(=O)N[C@@H](CC(N)=O)C(=O)N[C@@H](CC(C)C)C(=O)N[C@@H](CO)C(=O)N[C@@H]([C@@H](C)O)C(=O)N1)[C@@H](C)O)C(=O)NCC(=O)N[C@H](C(=O)NCC(=O)N[C@@H](C)C(=O)N1CCC[C@H]1C(N)=O)C(C)C [Peptide No. 3] (H-CGNLSTCMLGKLSQELHKLYPQTAIGVGAP-NH2; disulfide 1-7) |  |  |  |  |  | 100.0 | 97.0 | 94.9 | 86.4 | 89.9
Peptide No. 22: novel calcitonin-derivative peptide, aminosuberic acid (carba) ring, Leu8, SEQ ID NO:22 (XGNLSTALLGKLSQELHKLQTYPQTAIGVGAP; aminosuberic acid carba ring) | 100.0 | 76.1 | 70.7 | 70.7 | 75.9 | 100.0 | 77.2 | 70.7 | 55.8 | 48.5
CC[C@H](C)[C@H](NC(=O)[C@H](C)NC(=O)[C@@H](NC(=O)[C@H](CCC(N)=O)NC(=O)[C@@H]1CCCN1C(=O)[C@H](Cc1ccc(O)cc1)NC(=O)[C@@H](NC(=O)[C@H](CCC(N)=O)NC(=O)[C@H](CC(C)C)NC(=O)[C@H](CCCCN)NC(=O)[C@H](Cc1c[nH]cn1)NC(=O)[C@H](CC(C)C)NC(=O)[C@H](CCC(=O)O)NC(=O)[C@H](CCC(N)=O)NC(=O)[C@H](CO)NC(=O)[C@H](CC(C)C)NC(=O)[C@H](CCCCN)NC(=O)CNC(=O)[C@H](CC(C)C)NC(=O)[C@H](CC(C)C)NC(=O)[C@@H]1CCC(=O)NCCC[C@H](N)C(=O)N[C@@H](CC(N)=O)C(=O)N[C@@H](CC(C)C)C(=O)N[C@@H](CO)C(=O)N[C@@H]([C@@H](C)O)C(=O)N1)[C@@H](C)O)[C@@H](C)O)C(=O)NCC(=O)N[C@H](C(=O)NCC(=O)N[C@@H](C)C(=O)N1CCC[C@H]1C(N)=O)C(C)C [Peptide No. 30] (H-[Orn]NLSTELLGKLSQELHKLQTYPQTAIGVGAP-NH2; lactam 1-6) | 100.0 | 77.2 | 80.7 | 83.2 | 77.7 | 100.0 | 74.0 | 63.8 | 65.4 | 73.9
